Assay results: patent US5866545A, “Substituted ketone derivatives as inhibitors of interleukin-1β converting enzyme” (Merck & Co., Inc., priority 1996, dated 1999)
pKi: −log10 of the molar value. Read-outs that look alike come from different tables or passages of the source.

Biological target: T1, interleukin-1β converting enzyme (ICE) (Homo sapiens, UniProt P29466)
T1 sequence (P29466 120-297 limits assumed): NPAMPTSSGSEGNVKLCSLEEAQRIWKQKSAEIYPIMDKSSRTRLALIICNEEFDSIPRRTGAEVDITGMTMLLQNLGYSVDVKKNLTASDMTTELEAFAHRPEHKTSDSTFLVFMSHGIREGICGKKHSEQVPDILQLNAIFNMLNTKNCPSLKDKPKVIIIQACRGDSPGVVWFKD
T1 sequence (P29466 317-404 limits assumed): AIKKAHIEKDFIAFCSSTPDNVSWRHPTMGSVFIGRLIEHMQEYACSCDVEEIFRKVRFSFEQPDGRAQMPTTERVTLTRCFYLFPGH
Assay: Fluorometric assay of inhibition of ICE hydrolysis of peptide substrate Ac-Tyr-Val-Ala-Asp-AMC
Assay type: biochemical
Conditions: for pKi: reversible inhibition; for kon: irreversible inhibition
Text: Inhibition of Interleukin-1β Converting Enzyme (ICE).
A fluorometric assay used to evaluate the inhibition of interleukin-1βconverting enzyme (ICE) hydrolysis of a peptide substrate (Ac-Tyr-Val-Ala-Asp-AMC) by the compounds described in Examples 1-15 has been described in detail (N. A. Thornberry et al., Nature 1992, 356, 768-774). Briefly, liberation of AMC (aminomethylcoumarin) from the substrate was monitored continuously in a spectrofluorometer using an excitation wavelength of 380 nm and an emission wavelength of 460 nm. Details for determining kinetic constants for reversible and irreversible inhibition are described (N. A. Thomberry et al., Biochemistry 1994, 33, 3934-3940).
Inhibition of Interleukin-1β Converting Enzyme (ICE) by Examples 1-14

SMILES | pKi | kon (read-out: kon) [M⁻¹ s⁻¹] | kon
C=CCOC(=O)NC(CC(=O)O)C(=O)COc1ccccc1 (centres unmarked) [Example 1, N-Allyloxycarbonyl-3-amino-4-oxo-5-phenoxy-pentanoic acid] | 5.46 |  | 
C=CCOC(=O)NC(CC(=O)O)C(=O)COc1cccc2ccccc12 (centres unmarked) [Example 2, N-Allyloxycarbonyl-3-amino-5-(1-naphthyloxy)-4-oxopentanoic acid] | 5.02 |  | 
C=CCOC(=O)NC(CC(=O)O)C(=O)COc1ccc2ccccc2c1 (centres unmarked) [Example 3, N-Allyloxycarbonyl-3-amino-5-(2-naphthyloxy)-4-oxopentanoic acid] | 5.30 |  | 
C=CCOC(=O)NC(CC(=O)O)C(=O)COc1cc2ccccc2cc1C(N)=O (centres unmarked) [Example 4, N-Allyloxycarbonyl-3-amino-5-(3-aminocarbonyl-2-naphthyloxy)-4-oxopentanoic acid] | 6.52 |  | 
C=CCOC(=O)NC(CC(=O)O)C(=O)COc1cc2ccccc2cc1C(=O)Nc1ccccc1 (centres unmarked) [Example 5, N-Allyloxycarbonyl-3-amino-5-(3-(N-phenyl)aminocarbonyl-2-naphthyloxy)-4-oxopentanoic acid] | 6.30 |  | 
C=CCOC(=O)NC(CC(=O)O)C(=O)COc1cc2ccccc2cc1C#N (centres unmarked) [Example 6, N-Allyloxycarbonyl-3-amino-5-(3-cyano-2-naphthyloxy)-4-oxopentanoic acid] | 6.21 | 4500 | 
C=CCOC(=O)NC(CC(=O)O)C(=O)COc1cc2ccccc2cc1CO (centres unmarked) [Example 7, N-Allyloxycarbonyl-3-amino-5-(3-hydroxymethyl-2-naphthyloxy)-4-oxopentanoic acid] | 5.92 |  | 
C=CCOC(=O)NC(CC(=O)O)C(=O)COc1cc2ccccc2cc1C(=O)OC (centres unmarked) [Example 8, N-Allyloxycarbonyl-3-amino-5-(3-methoxycarbonyl-2-naphthyloxy)-4-oxopentanoic acid] | 5.59 |  | 
C=CCOC(=O)NC(CC(=O)O)C(=O)COc1cc2ccccc2cc1C(=O)NCCO (centres unmarked) [Example 9, N-Allyloxycarbonyl-3-amino-5-(3-(2-hydroxyethyl-1-aminocarbonyl)-2-naphthyloxy)-4-oxopentanoic acid] | 6.28 |  | 1000 M⁻¹ s⁻¹
C=CCOC(=O)NC(CC(=O)O)C(=O)COc1cc2ccccc2cc1-n1ccnc1 (centres unmarked) [Example 10, N-Allyloxycarbonyl-3-amino-5-(3-imidazolyl-2-naphthyloxy)-4-oxopentanoicacid] | 7.05 |  | 12,000 M^-1 s^-1
CC(=O)N[C@@H](Cc1ccc(O)cc1)C(=O)N[C@H](C(=O)N[C@@H](C)C(=O)NC(CC(=O)O)C(=O)COc1ccccc1)C(C)C (some centres unmarked) [Example 11, N-(N-Acetyl-(L)-tyrosinyl-(L)-valinyl-(L)-alaninyl)-3-amino-5-phenoxy-4-oxopentanoic acid] | 8.52 |  | 
CC(C)[C@H](NC(=O)OCc1ccccc1)C(=O)N[C@@H](C)C(=O)NC(CC(=O)O)C(=O)COc1cc2ccccc2cc1C(N)=O.CCN(CC)CC (some centres unmarked) [Example 12, N-(N-Carbobenzyloxy-(L)-valinyl-(L)-alaninyl)-3-amino-5-(3-amino-carbonyl-naphthyl-2-oxy)-4-oxo-pentanoic acid, triethylamine salt] |  |  | 430,000 M^-1 s^-1
CC(C)[C@H](NC(=O)OCc1ccccc1)C(=O)N1CCC[C@H]1C(=O)NC(CC(=O)O)C(=O)COc1cc2ccccc2cc1C(N)=O (some centres unmarked) [Example 13, N-(N-Carbobenzyloxy-(L)-valinyl-(L)-prolinyl)-3-amino-5-(3-amino-carbonyl-naphthyl-2-oxy)-4-oxo-petanoic acid] |  |  | 340,000 M^-1 s^-1
NC(=O)c1cc2ccccc2cc1OCC(=O)C(CC(=O)O)NC(=O)c1cc2ccccc2[nH]1 (centres unmarked) [Example 14, N-(2-indoloyl)-3-amino-5-(3-aminocarbonyl-naphthyl-2-oxy)-4-oxo-pentanoic acid] |  |  | 390 M⁻¹ s⁻¹
